Measurements reported in patent US20200316100A1, “HALOALKYL FUCOSE-CONTAINING SELECTIN ANTAGONISTS” (GlycoMimetics, Inc., priority 2016, published 2020).

Molecular target: T1, E-selectin/Ig chimera (Homo sapiens, UniProt P16581)
T1 sequence (P16581 22-556): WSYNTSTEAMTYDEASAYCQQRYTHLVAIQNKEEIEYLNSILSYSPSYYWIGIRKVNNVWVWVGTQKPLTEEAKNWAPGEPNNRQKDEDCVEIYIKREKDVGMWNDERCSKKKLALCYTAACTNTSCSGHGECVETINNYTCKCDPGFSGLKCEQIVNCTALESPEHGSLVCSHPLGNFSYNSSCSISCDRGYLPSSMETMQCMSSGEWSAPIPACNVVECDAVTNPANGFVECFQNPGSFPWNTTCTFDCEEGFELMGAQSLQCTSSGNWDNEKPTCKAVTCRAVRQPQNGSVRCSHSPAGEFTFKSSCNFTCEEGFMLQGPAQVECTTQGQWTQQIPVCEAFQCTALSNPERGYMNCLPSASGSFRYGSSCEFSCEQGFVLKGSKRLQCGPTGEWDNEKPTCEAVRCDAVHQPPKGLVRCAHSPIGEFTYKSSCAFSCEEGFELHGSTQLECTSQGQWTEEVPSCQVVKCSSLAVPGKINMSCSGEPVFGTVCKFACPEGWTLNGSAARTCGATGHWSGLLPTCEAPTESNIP
Experiment: E-Selectin Activity - Alternative Binding Assay (inhibition of sLea binding to immobilized E-selectin/Ig chimera)
Details: concentration required to inhibit binding of biotinylated sLea polyacrylamide/streptavidin-HRP conjugate to immobilized E-selectin by 50%; absorbance 450 nm
Protocol: E-selectin/Ig chimera was immobilized in 96 well microtiter plates by incubation at 37° C. for 2 hours. To reduce nonspecific binding, bovine serum albumin was added to each well and incubated at room temperature for 2 hours. The plate was washed and serial dilutions of the test compounds were added to the wells in the presence of conjugates of biotinylated, sLe^a polyacrylamide with streptavidin/horseradish peroxidase and incubated for 2 hours at room temperature.
To determine the amount of sLe^a hound to immobilized E-selectin after washing, the peroxidase substrate, 3,3′,5,5′ tetrametbylbenzidine (TMB) was added. After 3 minutes, the enzyme reaction was stopped by the addition of H3PO4, and the absorbance of light at a wavelength of 450 nm was determined.

Q: `CCC1CCCC(OC2OC(CO)C(O)C(OC(CC3CCCCC3)C(=O)O)C2OC(=O)c2ccccc2)C1OC1OC(C(F)(F)F)C(O)C(O)C1O` [Compound 75, sodium (5)-2-(((2R,3R,4S,5S,6R)-3-(benzoyloxy)-2-(((1R,2R,3S)-3-ethyl-2-(((2R,3S,4R,5S,6R)-3,4,5-trihydroxy-6-(trifluoromethyl)tetrahydro-2H-pyran-2-yl)oxy)cyclohexypoxy)-5-hydroxy-6-(hydroxymethyl)tetrahydro-2H-pyran-4-yl)oxy)-3-cyclohexylpropanoate] was tested. Which IC50 did it give?
A: 700 nM
